Experimental data taken from patent publication US9326513B2, “Fungicidal compositions” (Syngenta Participations AG, priority 2011, dated 2016).

How the values were obtained:
Type in all cases: in vivo
Conditions in all cases: foliar, compared to untreated control leaf disks, read-out: disease control
[1] = system: Blumeria graminis f. sp. tritici (Erysiphe graminis f. sp. tritici); assay: Blumeria graminis f. sp. tritici / wheat / leaf disc preventative (powdery mildew on wheat)
Summary of the method: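 Preventative leaf-disc test: compound (200 ppm) was sprayed onto cv. Kanzler wheat segments, which were dusted with conidia from infected plants 1 day after application. After incubation at 20° C and 60% rh, disease control relative to untreated segments was rated 6-8 days after application.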

[2] = system: Puccinia recondita f. sp. tritici; assay: Puccinia recondita f. sp. tritici / wheat / leaf disc preventative (brown rust)
Description: Puccinia recondita f. sp. tritici/Wheat/Leaf Disc Preventative (Brown Rust) Wheat leaf segments cv. Kanzler were placed on agar in multiwell plates (24-well format) and sprayed with the formulated test compound diluted in water. The leaf disks were inoculated with a spore suspension of the fungus 1 day after application.

[3] = system: Puccinia recondita f. sp. tritici; assay: Puccinia recondita f. sp. tritici / wheat / leaf disc curative (brown rust)
Method: Puccinia recondita f. sp. tritici/Wheat/Leaf Disc Curative (Brown Rust) Wheat leaf segments cv. Kanzler are placed on agar in multiwell plates (24-well format). The leaf segments are inoculated with a spore suspension of the fungus. Plates were stored in darkness at 19° C. and 75% rh. The formulated test compound diluted in water was applied 1 day after inoculation.

Pyrenophora teres = Pyrenophora teres / barley / leaf disc preventative (net blotch)
Description: Pyrenophora teres/Barley/Leaf Disc Preventative (Net Blotch) Barley leaf segments cv. Hasso were placed on agar in a multiwell plate (24-well format) and sprayed with the formulated test compound diluted in water. The leaf segments were inoculated with a spore suspension of the fungus 2 days after application.

Measured: pest or weed control at 200 ppm

CCN(C)/C=N/c1cc(Br)c(OC2CCC(C)=C(C)CC2)nc1C [Q.231]
≥ 50%: all assays above

CCN(C)/C=N/c1cc(Br)c(OC2Cc3ccc(Cl)cc3C2)nc1C (stereo not drawn) [Q.233]
≥ 50%: all assays above

CCN(C)/C=N/c1cc(Br)c(OC(C)c2ccc3c(c2)CCCC3)nc1C (stereo not drawn) [Q.238]
≥ 50%: all assays above

CCN(C)/C=N/c1cc(Br)c(OC2CCCC(Oc3ccccn3)C2)nc1C (stereo not drawn) [Q.240]
≥ 50%: all assays above

CCN(C)/C=N/c1cc(Br)c(OC2CCCC(Oc3ccccc3)C2)nc1C (stereo not drawn) [Q.241]
≥ 50%: all assays above

CCN(C)/C=N/c1cc(Br)c(OC(C)c2ccc3cccnc3c2)nc1C (stereo not drawn) [Q.242]
≥ 50%: all assays above

CCN(C)/C=N/c1cc(Br)c(OC2Cc3ccc(C)cc3C2)nc1C (stereo not drawn) [Q.243]
≥ 50%: all assays above

CCN(C)/C=N/c1cc(Br)c(OC2CCOCC2)nc1C [Q.244]
≥ 50%: all assays above

CCN(C)/C=N/c1cc(Br)c(OC(C)c2ccns2)nc1C (stereo not drawn) [Q.246]
≥ 50%: all assays above

CCN(C)/C=N/c1cc(C(F)F)c(O[C@H]2CC[C@@H](C(C)C)CC2)nc1C [Q.247]
≥ 50%: all assays above

CCN(C)/C=N/c1cc(OC)c(O[C@H]2CC[C@@H](C(C)C)CC2)nc1C [Q.248]
≥ 50%: all assays above

CCN(C)/C=N/c1cc(C2CC2)c(O[C@H]2CC[C@@H](C(C)C)CC2)nc1C [Q.249]
≥ 50%: all assays above

C#Cc1cc(/N=C/N(C)CC)c(C)nc1O[C@H]1CC[C@@H](C(C)C)CC1 [Q.250]
≥ 50%: all assays above

CCc1cc(/N=C/N(C)CC)c(C)nc1O[C@H]1CC[C@@H](C(C)C)CC1 [Q.251]
≥ 50%: all assays above

CCN(C)/C=N/c1cc(Br)c(O[C@@H](C)c2cc(F)cc(F)c2)nc1C [Q.260]
≥ 50%: all assays above

CCN(C)/C=N/c1cc(Br)c(O[C@H](C)c2cc(F)cc(F)c2)nc1C [Q.261]
≥ 50%: all assays above

CCN(C)/C=N/c1cc(-c2ccccc2)c(OC2CC=CC2)nc1C [Q.262]
≥ 50%: all assays above

CCN(C)/C=N/c1cc(Br)c(O[C@H]2CC[C@@H](c3ccccc3)CC2)nc1C [Q.269]
≥ 50%: all assays above

C=Cc1ccccc1COc1nc(C)c(/N=C/N(C)CC)cc1Br [Q.275]
≥ 50%: all assays above

C=Cc1cccc(COc2nc(C)c(/N=C/N(C)CC)cc2Br)c1 [Q.277]
≥ 50%: all assays above

C=Cc1cccc(C(C)Oc2nc(C)c(/N=C/N(C)CC)cc2Br)c1 (stereo not drawn) [Q.278]
≥ 50%: all assays above

CCN(C)/C=N/c1cc(C(C)C)c(OC(C)c2cc(F)cc(F)c2)nc1C (stereo not drawn) [Q.280]
≥ 50%: all assays above

CCN(C)/C=N/c1cc(Br)c(OC2CCC(=O)C=C2C)nc1C (stereo not drawn) [Q.282]
≥ 50%: all assays above

CCc1cccc(C(C)Oc2nc(C)c(/N=C/N(C)CC)cc2Br)c1 (stereo not drawn) [Q.284]
≥ 50%: all assays above

CCc1ccccc1COc1nc(C)c(/N=C/N(C)CC)cc1Br [Q.285]
≥ 50%: all assays above

CCN(C)/C=N/c1cc(Br)c(OCc2ccccc2C(F)F)nc1C [Q.289]
≥ 50%: all assays above

CCN(C)/C=N/c1cc(Br)c(OCc2cccc(C(C)F)c2)nc1C (stereo not drawn) [Q.291]
≥ 50%: all assays above

CCN(C)/C=N/c1cc(Br)c(OC(C)c2cccc(C(C)F)c2)nc1C (stereo not drawn) [Q.292]
≥ 50%: all assays above

C=C1CCC(Oc2nc(C)c(/N=C/N(C)CC)cc2Br)CC1 [Q.293]
≥ 50%: all assays above

CCN(C)/C=N/c1cc(Br)c(OC(C)c2ccccc2F)nc1C (stereo not drawn) [Q.299]
≥ 50%: all assays above

CCN(C)/C=N/c1cc(Br)c(OC(C)c2ccccc2Cl)nc1C (stereo not drawn) [Q.301]
≥ 50%: all assays above

CCN(C)/C=N/c1cc(Br)c(OCc2ccccc2Br)nc1C [Q.302]
≥ 50%: all assays above

CCN(C)/C=N/c1cc(Br)c(OCc2ccccc2C#N)nc1C [Q.304]
≥ 50%: all assays above
